Test results from paper PMC6222789, “CF3-Substituted Mollugin 2-(4-Morpholinyl)-ethyl ester as a Potential Anti-inflammatory Agent with Improved Aqueous Solubility and Metabolic Stability” (Molecules : A Journal of Synthetic Chemistry and Natural …, 2018).

Key:
Serum Amyloid A (SAA) = assay: Serum SAA level in DSS-induced colitis mouse model (ELISA); assay type: in vivo; conditions: for serum SAA level (mSS assay): 4% DSS-induced mouse model, compound 10 μM, ELISA; for effect on serum SAA level: murine model of DSS-induced colitis
Method: The level of Serum Amyloid A (SAA) was measured using a mouse SAA ELISA kit according to the manufacturer’s instructions (E-90SAA, Immunology Consultants Laboratory, Inc., Portland, OR, USA). All samples were assayed in duplicate. The concentrations of SAA were determined by comparison to serial dilutions of purified SAA calibrator.
Figure 2 Analysis of mouse serum amyloid A (SAA) level. Effect of 6d on the level of SAA in the 4% dextran sulfate sodium (DSS)-induced mouse model. The level of SAA in serum was determined by ELISA. The control mice received water + vehicle (water), and the treated groups received 4% DSS + vehicle or DSS with mesalazine (20 mM), 6d (10 μM), or 15c (10 μM). TEXT PRINTED IN THE PICTURE: vehecle: mSS assay (ng/ml): 252.08 | vehecle: mSS assay (ng/ml): 732.93 (4% DSS) | 2: mSS assay (ng/ml): 788.86 (4% DSS) | 6d: mSS assay (ng/ml): 295.77 (4% DSS) | 15c: mSS assay (ng/ml): 300.95 (4% DSS)

CYP1A2 = molecular target: T1, CYP1A2 (Homo sapiens, UniProt P05177); assay: CYP inhibition assay, CYP1A2; assay type: in vitro ADME; conditions: for CYP Inhibition (% of Control) 1A2: 10 μM, CYP activity in presence of inhibitor as % of control, human liver microsomes
T1 construct: from tissue; host or cells: human liver microsomes
T1 sequence (P05177 1-516): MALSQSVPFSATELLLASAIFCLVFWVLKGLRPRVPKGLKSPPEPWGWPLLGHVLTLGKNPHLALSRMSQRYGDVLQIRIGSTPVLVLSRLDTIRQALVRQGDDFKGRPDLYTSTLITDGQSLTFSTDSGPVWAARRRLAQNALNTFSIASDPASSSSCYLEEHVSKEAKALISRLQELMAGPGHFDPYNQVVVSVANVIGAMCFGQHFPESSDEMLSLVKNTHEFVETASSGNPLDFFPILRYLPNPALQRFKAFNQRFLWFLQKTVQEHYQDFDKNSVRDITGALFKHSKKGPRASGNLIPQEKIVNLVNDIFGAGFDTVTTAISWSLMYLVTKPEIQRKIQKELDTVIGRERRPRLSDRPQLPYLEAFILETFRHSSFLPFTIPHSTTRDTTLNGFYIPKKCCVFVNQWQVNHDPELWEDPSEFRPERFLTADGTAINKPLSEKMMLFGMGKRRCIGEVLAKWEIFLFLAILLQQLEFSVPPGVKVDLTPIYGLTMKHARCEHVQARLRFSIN
Method: All incubations were performed in duplicate, and the mean values were used for analysis. The assays of phenacetin O-deethylase, tolbutamide 4-hydroxylase, S-mephenytoin 4-hydroxylase, dextromethorphan O-demethylase and midazolam 1′-hydroxylase activities were determined as probe activities for CYP1A2, CYP2C9, CYP2C19, CYP2D6 and CYP3A, respectively, using cocktail incubation and tandem mass spectrometry. Briefly, incubation reaction was performed with 0.25 mg/mL human liver microsomes in a final incubation volume of 100 μL. The incubation medium contained 100 mM phosphate buffer (pH 7.4) with probe substrates. The incubation mixture containing various inhibitors (10 μM) was pre-incubated for 5 min. After pre-incubation, an NADPH regenerating system was added. After incubation at 37 °C for 15 min, the reaction was stopped by placing the incubation tubes on ice and adding 40 μL of ice-cold acetonitrile. The incubation mixtures were then centrifuged at 10,000× g for 5 min at 4 °C. Aliquots of the supernatant were injected onto an LC-MS/MS system. The CYP-mediated activities in the presence of inhibitors were expressed as percentages of the corresponding control values.

hERG channel = molecular target: T2, hERG channel (Homo sapiens, UniProt Q12809); assay: hERG channel binding assay (fluorescence polarization)
T2 construct: purchased Invitrogen PV5365
Method: hERG channel binding assay was performed using Invitrogen’s hERG Fluorescence Polarization Assay kit (PV5365) with Synergy Neo plate reader (BioTek, Winooski, VT, USA). The binding assay was carried out according to the kit manufacturer’s instructions.

[1] = Metabolic stability, dog liver microsomes; assay type: in vitro ADME; conditions: 30 min, 1 μM
Method: Pooled human liver microsomes (150 donor) and dog, rat, mouse liver microsomes were obtained from BD Gentest Co. (Woburn, MA, USA). NADPH regeneration system was obtained from Promega. S-Mephenytoin, 4-hydroxymephenytoin, and 1’-hydroxymidazolam were purchased from Ultrafine Chemical Co. (Manchester, UK). All other chemicals and solvents were of the highest grade available. The metabolic stability assay was performed by incubation of human or selected animal liver microsomes (most often dog, rat and mouse), at 37 °C with a test compound at a final concentration of 1 μM, in the presence of 0.5 mg/mL microsomal protein and NADPH regeneration system, in a total volume of 100 μL of 100 mM phosphate buffer, pH 7.4. The incubation was started by the addition of NADPH regeneration system and terminated with 40 μL of ice-cold acetonitrile at 0 and 30 min. Precipitated proteins were removed by centrifugation at 10,000× g for 5 min at 4 °C. Aliquots of the supernatant were injected onto an LC-MS/MS system. Incubations terminated prior to the addition of NADPH regeneration system (time point 0 min) were used as standards, defined as 100%. Percent of the parent compound remaining was calculated by comparing peak area.

[2] = Determination of water solubility at 10 mM; assay type: physicochemical; conditions: aqueous buffer, thermodynamic from solid, sodium phosphate buffer 0.1 M, pH 7.4, room temperature
Method: Water solubility (>10 mM) was determined using the following procedure at room temperature. The test compound was added to a vial containing sodium phosphate buffer, 0.1 M, pH 7.4 (1 mL) to make a 10 mM mixture, and the mixture was equilibrated during 10 min of sonication and then visually checked immediately and after 24 h for any undissolved parts or precipitation of the sample. If no precipitation was shown after 24 h, the aqueous solution was filtered (Syringe filter; PTFE; pore size: 0.45 μm; 25 mm DI) and subjected to LC-MS to confirm the reagent.

T2 sequence (Q12809 whole entry): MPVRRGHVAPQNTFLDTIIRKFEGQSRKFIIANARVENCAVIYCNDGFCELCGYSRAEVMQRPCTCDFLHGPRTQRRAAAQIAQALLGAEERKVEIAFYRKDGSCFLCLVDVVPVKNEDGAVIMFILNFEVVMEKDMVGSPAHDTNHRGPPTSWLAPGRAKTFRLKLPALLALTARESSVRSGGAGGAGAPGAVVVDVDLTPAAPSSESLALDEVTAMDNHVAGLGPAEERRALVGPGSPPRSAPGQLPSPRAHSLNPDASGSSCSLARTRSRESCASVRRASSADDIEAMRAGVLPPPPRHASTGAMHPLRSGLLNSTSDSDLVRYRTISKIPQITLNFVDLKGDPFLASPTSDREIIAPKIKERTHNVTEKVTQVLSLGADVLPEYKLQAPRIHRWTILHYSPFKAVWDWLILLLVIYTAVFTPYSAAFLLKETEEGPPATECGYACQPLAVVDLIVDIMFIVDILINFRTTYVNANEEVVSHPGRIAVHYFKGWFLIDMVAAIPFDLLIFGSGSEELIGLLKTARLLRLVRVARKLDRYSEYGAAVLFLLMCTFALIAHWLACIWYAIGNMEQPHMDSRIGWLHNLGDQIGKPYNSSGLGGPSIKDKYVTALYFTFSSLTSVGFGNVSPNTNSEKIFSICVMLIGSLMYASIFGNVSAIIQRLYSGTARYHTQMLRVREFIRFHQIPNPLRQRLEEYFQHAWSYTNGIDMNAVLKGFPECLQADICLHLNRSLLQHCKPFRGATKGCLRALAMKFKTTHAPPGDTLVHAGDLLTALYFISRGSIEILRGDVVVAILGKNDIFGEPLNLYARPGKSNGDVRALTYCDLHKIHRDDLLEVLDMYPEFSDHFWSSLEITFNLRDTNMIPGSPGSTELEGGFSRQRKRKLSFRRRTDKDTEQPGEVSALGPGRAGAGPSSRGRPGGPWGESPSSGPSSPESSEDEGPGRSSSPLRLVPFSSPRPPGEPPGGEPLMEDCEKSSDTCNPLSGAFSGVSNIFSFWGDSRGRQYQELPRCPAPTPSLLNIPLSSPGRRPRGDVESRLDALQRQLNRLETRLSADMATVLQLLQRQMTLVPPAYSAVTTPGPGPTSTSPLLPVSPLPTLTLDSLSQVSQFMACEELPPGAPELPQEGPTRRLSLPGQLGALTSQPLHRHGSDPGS

CYP Inhibition (% of Control) 1A2 (CYP1A2) | Metabolic Stability (% Remain, 30 min) Dog [1] | inhibition at 15 min, 10 μM (CYP1A2; human, liver microsomes, pH 7.4, probe phenacetin (O-deethylation), at 10 μM drug concentration, read-out: % inhibition of CYP 1A2) | solubility at 24 h [2] | Compound | serum SAA level (mSS assay) (Serum Amyloid A (SAA)) | effect on serum SAA level (Serum Amyloid A (SAA)) | IC50 (hERG channel)
58 % of Control | 45 % Remain |  |  | CC1(C)C=Cc2c(C(=O)OCCN3CCOCC3)c(O)c3ccccc3c2O1 [6d, 2-Morpholinoethyl 6-hydroxy-2,2-dimethyl-2H-benzo[h]chromene-5-carboxylate] | 295.77 ng/mL | reduces serum SAA level | > 10 µM
57 % of Control | 86 % Remain | < 50% | > 10 mM | CC1(C)C=Cc2c(C(=O)OCCN3CCOCC3)c(O)c3cc(C(F)(F)F)ccc3c2O1 [15c, 2-Morpholinoethyl 6-hydroxy-2,2-dimethyl-8-(trifluoromethyl)-2H-benzo[h]chromene-5-carboxylate] | 300.95 ng/mL | reduces serum SAA level | 
